Data: ChEMBL document CHEMBL1128025, “Synthesis and evaluation of pyridyl analogs of L-735,524: Potent HIV-1 protease inhibitors” (Bioorg Med Chem Lett, 1994)
pIC50: −log10 of the molar value.

Experiments:
[1] = test system: Human immunodeficiency virus; assay: Compound was tested for cellulr inhibition of HIV was determined; type: functional; conditions: Human immunodeficiency virus 1
[2] = Concentration maxima after oral dosing in dogs; type: ADME, organism-based, Canis lupus familiaris; design: route oral; conditions: dog, in vivo
[3] = target: Human immunodeficiency virus type 1 protease (Human immunodeficiency virus 1, UniProt Q72874); assay: Inhibition of Human Immunodeficiency virus-1 protease
[4] = test system: Human immunodeficiency virus; assay: Compound was tested for cellulr inhibition of HIV was determined; Range is 6-12; type: functional; conditions: Human immunodeficiency virus 1
[5] = test system: Human immunodeficiency virus; assay: Compound was tested for cellulr inhibition of HIV was determined; Range is 12-25; type: functional; conditions: Human immunodeficiency virus 1
[6] = test system: Human immunodeficiency virus; assay: Compound was tested for cellulr inhibition of HIV was determined; Range is 25-50; type: functional; conditions: Human immunodeficiency virus 1

Row | SMILES | IC95 [1] [nM] | Cmax [2] [nM] | pIC50 [3] | IC95 [4] [nM] | IC95 [5] [nM] | IC95 [6] [nM]
1 | CC(C)(C)NC(=O)[C@@H]1CN(Cc2cccnc2)CCN1C[C@@H](O)C[C@@H](Cc1ccncc1)C(=O)N[C@H]1c2ccccc2C[C@H]1O | > 200 | 414 | 8.77 | – | – | –
2 | CC(C)(C)NC(=O)[C@@H]1CN(Cc2cc(Br)cs2)CCN1C[C@@H](O)C[C@@H](Cc1cccnc1)C(=O)N[C@H]1c2ccccc2C[C@H]1O | 25 | 633 | 10.52 | – | – | –
3 | CC(C)(C)NC(=O)[C@@H]1CN(Cc2cc3ccsc3s2)CCN1C[C@@H](O)C[C@@H](Cc1cccnc1)C(=O)N[C@H]1c2ccccc2C[C@H]1O | – | 7290 | 9.92 | 12 | – | –
4 | CC(C)(C)NC(=O)[C@@H]1CN(Cc2cccnc2)CCN1C[C@@H](O)C[C@@H](Cc1ccccc1)C(=O)N[C@H]1c2ccccc2C[C@H]1O [INDINAVIR] | 50 | – | – | – | – | –
5 | CC(C)(C)NC(=O)[C@@H]1CN(Cc2cc3ccsc3s2)CCN1C[C@@H](O)C[C@@H](Cc1ccncc1)C(=O)N[C@H]1c2ccccc2C[C@H]1O | – | 1730 | 10.22 | 12 | – | –
6 | CC(C)(C)NC(=O)[C@@H]1CN(Cc2cc3sccc3s2)CCN1C[C@@H](O)C[C@@H](Cc1cccnc1)C(=O)N[C@H]1c2ccccc2C[C@H]1O | – | 3290 | 10.05 | 12 | – | –
7 | CC(C)(C)NC(=O)[C@@H]1CN(S(=O)(=O)c2cccc3cccnc23)CCN1C[C@@H](O)C[C@@H](Cc1ccncc1)C(=O)N[C@H]1c2ccccc2C[C@H]1O | 200 | – | 10.82 | – | – | –
8 | CC(C)(C)NC(=O)[C@@H]1CN(Cc2c(F)cccc2F)CCN1C[C@@H](O)C[C@@H](Cc1cccnc1)C(=O)N[C@H]1c2ccccc2C[C@H]1O | 12.2 | 1010 | 9.85 | – | – | –
9 | CC(C)(C)NC(=O)[C@@H]1CN(Cc2cc(Br)cs2)CCN1C[C@@H](O)C[C@@H](Cc1ccncc1)C(=O)N[C@H]1c2ccccc2C[C@H]1O | – | 2200 | 9.96 | – | 25 | –
10 | CC(C)(C)NC(=O)[C@@H]1CN(S(=O)(=O)c2cccc3cccnc23)CCN1C[C@@H](O)C[C@@H](Cc1cccnc1)C(=O)N[C@H]1c2ccccc2C[C@H]1O | > 200 | – | 10.52 | – | – | –
11 | CC(C)(C)NC(=O)[C@@H]1CN(Cc2cccnc2)CCN1C[C@@H](O)C[C@@H](Cc1cccnc1)C(=O)N[C@H]1c2ccccc2C[C@H]1O | > 200 | – | 8.77 | – | – | –
12 | CC(C)(C)NC(=O)[C@@H]1CN(Cc2cc3sccc3s2)CCN1C[C@@H](O)C[C@@H](Cc1ccncc1)C(=O)N[C@H]1c2ccccc2C[C@H]1O | – | 1590 | 10.30 | 12 | – | –
13 | CC(C)(C)NC(=O)[C@@H]1CN(Cc2c(F)cccc2F)CCN1C[C@@H](O)C[C@@H](Cc1ccncc1)C(=O)N[C@H]1c2ccccc2C[C@H]1O | – | 8060 | 9.32 | – | – | 50
